Experimental data from patent US20210283163A1, “COMPOSITIONS AND METHODS FOR THE TREATMENT OF ACUTE AND CHRONIC PRURITIS” (Duke University, priority 2018, published 2021).

Key:
naive mice = format: in vivo, mouse; details: naive mice; for wiping (pain) after intradermal cheek injection / scratching (itch) after intradermal cheek injection: 1 mM, 5 μL
Protocol: (§1) Behavioral Assessment for Scratching (Itch) and Wiping (Pain). Mice were shaved on the cheek or nape after a brief anesthesia with isoflurane. Before experiments, mice were habituated in small plastic chambers (14×18×12 cm) daily for two days. The room temperature and humidity remained stable for all the experiments. […] After the injection, the number of scratches in 60 min was counted. A scratch was counted when a mouse lifted its hind paw to scratch the shaved region and returned the paw to the floor or to the mouth. A bout of wiping was defined as a continuous wiping movement with a forepaw directing at the area of the injection area (Shimada and LaMotte, Pain 2008, 139, 681-687). Scratching and wiping behavior was videoed for 30 min or 60 min using Sony HDR-CX610 camera. The video was subsequently played back offline and the numbers of scratches and wipes were quantified in a blinded manner.

mice = experiment: Back model: intradermal nape injection, scratching; format: in vivo, mouse; details: 1 mM, 10 μL
Protocol: as §1

DRG neurons = experiment: Calcium imaging in cultured DRG neurons of Pirt-GCaMP3 mice; format: cell-based, mouse; details: histamine 500 μM, CQ 1,000 μM, AITC 200 μM; for DRG neurons showing Ca2+ increase / responses: miR-711 50 μM, 544 neurons from 3 mice
Protocol: (§2) Primary Cultures of Mouse and Human Sensory Neurons. […] Cells were mechanically dissociated with a flame polished Pasteur pipette in the presence of 0.05% DNase I (Sigma).
(§3) Ca^2+ Imaging. […] The imaging buffer includes 140 mM NaCl, 10 mM D-(+)-Glucose, 1 mM MgCl2, 2 mM CaCl2, 5 mM KCl, 10 mM HEPES, pH=7.4, osmolarity=320 mOsm/L. Calcium signals were measured using green emitted light in a 3 s interval. Ca ^2+ signal amplitudes were presented as ΔF/F0=(Ft−F0)/F0 as ratio of fluorescence difference (Ft−F0) to basal value (F0). The average fluorescence intensity in the baseline period was taken as F0. Ca ^2+ imaging was also analyzed in HEK293-TRPA1 cell line after loading cells with […] fura2-AM (Invitrogen) for 40 min in the Ca^2+ imaging buffer. Ca^2+ imaging protocol was a ratio metric method with 340/380-nm wavelength light for dual excitation. Data were presented as ΔR/R0, determined as the fraction ΔR (Rt−R0) of the increase of a given ratio over baseline ratio (R0).

TG neurons = experiment: Calcium imaging in TG neurons of Pirt-GCaMP3 mice; format: cell-based, mouse; details: histamine 500 μM, CQ 1000 μM, AITC 200 μM; for TG neurons responding (calcium): miR-711 50 μM, 204 neurons
Protocol: as §2, §3

human DRG neurons = experiment: Whole-cell patch clamp, inward currents in human DRG neurons; format: cell-based; details: 10 μM; small diameters
Protocol: Non-diseased human DRGs were obtained from donors through National Disease Research Interchange (NDRI) with permission of exemption from the Duke University Institutional Review Board (IRB). Postmortem L3-L5 DRGs were dissected from 4 donors and delivered in ice cold culture medium to the laboratory at Duke University within 24-72 hr of the donor's death. Upon the delivery, DRGs were rapidly dissected from nerve roots and minced in a calcium-free HBSS (GIBCO). Human DRG cultures were prepared as previously reported (Chang et al., Neurosci. Bull. 2018, 34, 4-12; Han et al., Neuron 2016, 92, 1279-1293). DRGs were digested at 37° C. in a humidified CO2 incubator for 120 min with collagenase Type II (Worthington, 290 units/mg, 12 mg/mL final concentration) and dispase II (Roche, 1 unit/mg, 20 mg/mL) in PBS with 10 mM HEPES, pH adjusted to 7.4 with NaOH. DRGs were mechanically dissociated using fire-polished pipettes, filtered through a 100 μm nylon mesh and centrifuged (500 g for 5 min). The pellet was resuspended, plated on 0.5 mg/mL poly-D-lysine-coated glass coverslips, and grown in Neurobasal medium supplemented with 10% FBS, 2% B-27 supplement, and 1% penicillin/streptomycin. Whole-cell patch-clamp recordings in small (<[…]) human DRG neurons were conducted at room temperature using patch pipettes with resistances of 3-4 MΩ.
Whole-Cell Patch Clamp Recordings in HEK293 Cells, CHO Cells, and DRG Neurons. Whole-cell patch clamp recordings were performed at room temperature using an Axopatch-200B amplifier (Axon Instruments) with a Digidata 1440B (Axon Instruments). In this study, we only examined small-diameter mouse DRG neurons (<25 μM) and small-diameter human DRG neurons (<55 μM). The patch pipettes were pulled from borosilicate capillaries (World Precision Instruments) using a P-97 Flaming/Brown micropipette puller (Sutter Instrument). Pipette resistance was 4-6 MΩ for whole-cell and outside-out recording. […]

CTCL mice = experiment: Mouse CTCL xenograft model of chronic itch; format: in vivo; details: given 20 days after Myla cell inoculation; hsa-miR-711 inhibitor 100 μM, HC030031 200 μM, A967079 50 μM, peptides 2 mM
Protocol: Mouse CTCL Xenograft Model of Chronic Itch. We developed a murine xenograft model of cutaneous T cell lymphoma (CTCL) using immune-deficient mice (NOD.CB17-Prkdcscid, 8-10 weeks old, male). CD4^+ MyLa cell line was purchased from Sigma (Ca #95051032). The cell line was established from a plaque biopsy of a person with mycosis fungoides stage II by inclusion of IL-2 and IL-4 in the culture medium. CTCL was generated via intradermal injection of CD4^+ Myla cells (1×10^5 cells/μl, 100 μL) on the nape of the neck. Tumor growth was assessed for 40 days by measurements of tumor diameters.
as §1
Generation of Myla Stable Cell Line Expressing miR-711 Inhibitor. CD4^+ Myla cells were plated at a density of 2×10^5 cells/mL in 2 mL culture media in 6-well plates. For each well, 20 μL of the MISSION Lenti microRNA Inhibitor (hsa-miR-711) lentivirus (Sigma) with a titer of 2.6×10^7 Tu/mL were added. Cell mixtures were incubated at 37° C. for 48 hr, washed with PBS three times, and re-suspended in fresh culture media, and 24 hr later, 1 μg/mL puromycin was added to the cells to select stably transduced cell populations. We tried to grow and passage the cells as much as necessary (usually 3 days) and maintained selection pressure by keeping 1 μg/mL puromycin in the medium. After 4 weeks, a large number of the cells were killed; the remaining cells retained the expression of the plasmid, which stably integrates into the genome of the targeted cells. These cells were used for inoculation to generate the CTCL model for testing the effects of miR-711 inhibitor on chronic itch and tumor growth.

hTRPA1 = hTRPA1 (Homo sapiens, UniProt O75762); experiment: Whole-cell patch clamp, inward currents in HEK293 cells expressing hTRPA1; format: cell-based; details: bath application; miRNAs and core sequence 10 μM, AITC 50 μM
hTRPA1, sequence (O75762 whole entry): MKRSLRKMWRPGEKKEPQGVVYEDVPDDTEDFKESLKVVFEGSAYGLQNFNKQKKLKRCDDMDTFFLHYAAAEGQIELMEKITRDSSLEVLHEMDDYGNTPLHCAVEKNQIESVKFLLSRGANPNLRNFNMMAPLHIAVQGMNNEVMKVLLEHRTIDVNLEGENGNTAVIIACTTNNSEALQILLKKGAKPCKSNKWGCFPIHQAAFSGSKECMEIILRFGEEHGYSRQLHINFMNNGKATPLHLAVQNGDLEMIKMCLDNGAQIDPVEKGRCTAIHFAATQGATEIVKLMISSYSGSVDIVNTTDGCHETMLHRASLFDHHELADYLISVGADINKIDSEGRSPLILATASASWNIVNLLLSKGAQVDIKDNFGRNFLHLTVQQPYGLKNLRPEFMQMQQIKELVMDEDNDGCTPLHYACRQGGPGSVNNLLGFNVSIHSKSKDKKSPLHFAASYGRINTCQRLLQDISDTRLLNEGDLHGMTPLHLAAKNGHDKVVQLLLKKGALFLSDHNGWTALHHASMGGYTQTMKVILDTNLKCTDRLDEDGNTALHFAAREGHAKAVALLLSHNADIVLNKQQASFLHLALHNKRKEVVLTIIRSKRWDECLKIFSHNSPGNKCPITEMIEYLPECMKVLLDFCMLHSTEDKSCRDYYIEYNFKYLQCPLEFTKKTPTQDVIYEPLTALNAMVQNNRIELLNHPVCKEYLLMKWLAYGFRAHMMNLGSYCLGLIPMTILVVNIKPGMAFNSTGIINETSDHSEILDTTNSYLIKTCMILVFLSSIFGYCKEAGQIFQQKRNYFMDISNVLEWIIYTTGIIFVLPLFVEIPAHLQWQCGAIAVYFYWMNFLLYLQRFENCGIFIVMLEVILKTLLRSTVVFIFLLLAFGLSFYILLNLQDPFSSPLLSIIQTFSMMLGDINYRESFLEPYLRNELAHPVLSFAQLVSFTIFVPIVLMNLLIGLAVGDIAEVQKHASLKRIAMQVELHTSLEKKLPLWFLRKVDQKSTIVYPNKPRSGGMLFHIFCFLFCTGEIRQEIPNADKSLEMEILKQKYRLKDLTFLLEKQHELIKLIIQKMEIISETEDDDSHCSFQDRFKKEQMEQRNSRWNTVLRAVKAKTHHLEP
Protocol: Cell Culture and Transfection. CD4^+ Myla cell line was cultured in RPMI 1640 media (GIBCO), supplemented with 2 mM Glutamine (GIBCO), 100 U/mL IL-2 (Sigma), 100 U/mL IL-4 (Sigma), and 10% human AB serum (Sigma). HuT 102 cell line was cultured in RPMI 1640 supplemented with pyruvate, HEPES, and 10% (v/v) fetal bovine serum (HyClone). HEK293-hTRPA1 stable cell line was cultured in MEM (GIBCO) containing 2 mM Glutamine, 4 μg/mL Blasticidin, 10% FBS (v/v). B16 and CHO cells were cultured in high glucose (4.5 g/L) Dulbecco's Modified Eagle's Medium (GIBCO) containing 10% (v/v) fetal bovine serum (GIBCO). Culture media were supplemented with 50 units/mL of penicillin and 50 μg/mL streptomycin, and cultures were maintained with 5% CO2 in 37° C. incubator. Transfection (2 μg cDNA) was performed with Lipofectamine™ 2000 Reagent (Invitrogen) at 80% confluency and the transfected cells were cultured in the same media for 48 hr before electrophysiological and biochemical studies.
Whole-Cell Patch Clamp Recordings in HEK293 Cells, CHO Cells, and DRG Neurons. Whole-cell patch clamp recordings were performed at room temperature using an Axopatch-200B amplifier (Axon Instruments) with a Digidata 1440B (Axon Instruments). In this study, we only examined small-diameter mouse DRG neurons (<25 μM) and small-diameter human DRG neurons (<55 μM). The patch pipettes were pulled from borosilicate capillaries (World Precision Instruments) using a P-97 Flaming/Brown micropipette puller (Sutter Instrument). Pipette resistance was 4-6 MΩ for whole-cell and outside-out recording. For inward current recordings in mouse and human DRG neurons, HEK293 cells, and CHO cells, the internal solution contains (in mM): 140 CsCl, 10 EGTA, 10 HEPES, and 2 Mg-ATP, adjusted to pH 7.3 with CsOH. Whole cell recordings were performed in an extracellular solution that contains (in mM): 140 NaCl, 5 KCl, 2 MgCl2, 10 HEPES, and 10 glucose, adjusted to pH 7.4 with NaOH and osmolarity to 300-310 mOsm. […] Action potential recordings were performed in small-diameter DRG neurons, with the following solutions: i) internal pipette solution contains: 126 mM K-gluconate, 10 mM NaCl, 1 mM MgCl2, 10 mM EGTA, 10 mM HEPES and 2 mM Na-ATP, adjusted to pH 7.4 with KOH and osmolarity to 295-300 mOsm), and ii) extracellular solution contains: 140 mM NaCl, 5 mM KCl, 2 mM MgCl2, 2 mM CaCl2, 10 mM HEPES, 10 mM glucose, adjusted to pH 7.4 with KOH.

Compound: miR-326: mmu-miR-326: gggggcagggccuuugugaaggcg (SEQ ID NO: 8) (GGGGGCAGGGCCUUUGUGAAGGCG; listed as RNA, chemistry not given here)
- wiping (pain) after intradermal cheek injection (naive mice): Neither did
- scratching after intradermal injection on the nape of neck (mice): no effects

Compound: m2: mutant of miR-711: gggaaaaggggagagauguaag (SEQ ID NO: 12) (GGGAAAAGGGGAGAGAUGUAAG; listed as RNA, chemistry not given here)
- scratching (itch) after intradermal cheek injection (naive mice): marked reduction in scratching

Compound: NCCc1c[nH]cn1 [histamine]
- miR-711-responsive DRG neurons that also responded (DRG neurons): 61.9%
- DRG neurons showing Ca2+ increase / responses (DRG neurons): 5.5%
- miR-711-responsive TG neurons that also responded (TG neurons): 52%
- TG neurons responding (calcium) (TG neurons): 6.9%

Compound: hsa-miR-642b-3p: hsa-miR-642b-3p: agacacauuuggagagggaccc (SEQ ID NO: 10) (AGACACAUUUGGAGAGGGACCC; listed as RNA, chemistry not given here)
- scratching (itch) after intradermal cheek injection (naive mice): resulted in pruritus
- wiping (pain) after intradermal cheek injection (naive mice): failed to elicit wiping
- inward currents in human DRG neurons (human DRG neurons): induced similar inward currents

Compound: CC(C)c1ccc(NC(=O)Cn2cnc3c2c(=O)n(C)c(=O)n3C)cc1 [HC30031, 2-(1,3-Dimethyl-2,6-dioxo-1,2,3,6-tetrahydro-7H-purin-7-yl)-N-(4-isopropylphenyl)acetamide]
- effect on CTCL-evoked chronic itch (CTCL mice): suppressed

Compound: m1: mutant of miR-711: aaaacccggggagagauguaag (SEQ ID NO: 11) (AAAACCCGGGGAGAGAUGUAAG; listed as RNA, chemistry not given here)
- scratching (itch) after intradermal cheek injection (naive mice): marked reduction in scratching

Compound: miR-155: mmu-miR-155: uuaaugcuaauugugauaggggu (SEQ ID NO: 7) (UUAAUGCUAAUUGUGAUAGGGGU; listed as RNA, chemistry not given here)
- wiping (pain) after intradermal cheek injection (naive mice): Neither did
- scratching after intradermal injection on the nape of neck (mice): no effects

Compound: GGGACCC: mmu-miR-711 core: gggaccc (SEQ ID NO: 1) (listed as RNA, chemistry not given here)
- scratching after intradermal injection of 7-nucleotide oligos (naive mice): sufficient to elicit scratching
- wiping after intradermal injection of 7-nucleotide oligos (naive mice): not wiping
- inward currents (hTRPA1): inward currents induced

Compound: AAAAAAA: Mmu-miR-711 mutant: aaaaaaa (SEQ ID NO: 17) (listed as RNA, chemistry not given here)
- scratching after intradermal injection of 7-nucleotide oligos (naive mice): did not affect
- wiping after intradermal injection of 7-nucleotide oligos (naive mice): did not affect

Compound: hsa-miR-711: hsa-miR-711: gggacccagggagagagacguaag (SEQ ID NO: 9) (GGGACCCAGGGAGAGAGACGUAAG; listed as RNA, chemistry not given here)
- scratching (itch) after intradermal cheek injection (naive mice): able to evoke pruritus
- wiping (pain) after intradermal cheek injection (naive mice): failed to elicit wiping
- inward currents in human DRG neurons (human DRG neurons): evoked TRPA1-dependent inward currents

Compound: CCN(CC)CCCC(C)Nc1ccnc2cc(Cl)ccc12 (centres unmarked) [CQ, chloroquine]
- miR-711-responsive DRG neurons that also responded (DRG neurons): 66.7%
- DRG neurons showing Ca2+ increase / responses (DRG neurons): 5.1%
- miR-711-responsive TG neurons that also responded (TG neurons): 76%
- TG neurons responding (calcium) (TG neurons): 9.3%
